# Measurements from PMC3578121 (Journal of molecular biology, 2012).
# Values joined by “and” are separate entries in the source; they are usually repeats but may differ in a detail not shown here. Equal entries are not always repeated. Where two headings read alike, the source gives them in different places.
# Experiments:
# [1] = molecular target: VCCβ-prism (isolated β-prism domain of Vibrio cholerae cytolysin) (Vibrio cholerae serotype O1, UniProt P09545); experiment: biochemical; format: binding
# Chain of VCCβ-prism (isolated β-prism domain of Vibrio cholerae cytolysin) (P09545 611-741 limits assumed): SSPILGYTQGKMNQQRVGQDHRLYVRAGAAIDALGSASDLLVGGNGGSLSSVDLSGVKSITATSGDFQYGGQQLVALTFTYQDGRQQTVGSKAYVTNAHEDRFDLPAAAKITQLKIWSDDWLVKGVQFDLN
# D617K mutant of VCC = format: binding, Vibrio cholerae
# [2] = tested on: rabbit whole blood lysis by wild-type VCC
# VCCβ-prism = VCCβ-prism (Vibrio cholerae serotype O1, UniProt P09545); format: binding
# Chain of VCCβ-prism (P09545 611-741 limits assumed): as above
# VCC = details: cited from earlier work
# VCCWT = format: binding, Vibrio cholerae
compound,measurement,setting,value
"OC[C@H]1O[C@H](O[C@H]2[C@H](O)[C@@H](O)C(O)O[C@@H]2CO)[C@H](O)[C@@H](O)[C@@H]1O (mixture of isomers) [Maltose, glucose-α1,4-glucose]",KD of maltose relative to KD of Me-α-mannose,[1],10 fold
same,Kd,[1],30.9 ± 3.17 mM
same,ΔG,[1],-2.09 kcal/mol
"C[C@H](O)[C@@H](O)[C@@H](O)[C@H](O)C=O [Fucose, L-fucose]",Binding detected by ITC,[1],did not exhibit measurable binding
OC[C@H]1OC(O)[C@H](O)[C@@H](O)[C@@H]1O (stereo partly drawn) [Glucose],Kd,[1],12 ± 0.6 mM
same,ΔG,[1],-2.679 kcal/mol
"OC[C@H]1OC(O)[C@@H](O)[C@@H](O)[C@@H]1O (stereo partly drawn) [Mannose, D-mannose]",Kd,[1],14.8 ± 1.18 mM
same,ΔG,[1],-2.456 kcal/mol
"CO[C@H]1O[C@H](CO)[C@H](O)[C@H](O)[C@H]1O [Me-α-Galactose, Me-α-D-galactose]",Binding detected by ITC,[1],did not bind
"COC1OC(CO)C(O)C(O)C1O [Me-α-Glucose, Me-α-D-glucose]",Kd,[1],7.1 mM and 7.09 mM
same,ΔG,[1],-2.944 kcal/mol
"COC1OC(CO)C(O)C(O)C1O (stereo not drawn) [Me-α-Mannose, methyl-α-mannose]",Increase in affinity of Me-α-D-mannose over D-mannose,[1],roughly five-fold increase
same,Kd,[1],3.24 ± 0.1 mM
same,ΔG,[1],-3.424 kcal/mol
same,Binding detected by ITC,D617K mutant of VCC,could not detect measurable binding
same,Effect on half-life (t1/2) of rabbit blood hemolysis by VCC,[2],no effect
CO[C@@H]1O[C@H](CO)[C@@H](O)[C@H](O)[C@@H]1O [Me-β-D-mannose],Binding detected by ITC,[1],loss of binding
"COC1OC(CO)C(O)C(O)C1O [Me-β-Galactose, Me-β-D-galactose]",Binding detected by ITC,[1],did not bind
"COC1OC(CO)C(O)C(O)C1O [Me-β-Glucose, Me-β-D-glucose]",Binding detected by ITC,[1],did not bind
"CC(=O)N[C@@H]1[C@@H](O)[C@H](O)[C@@H](CO)O[C@H]1O [N-acetylglucosamine, N-acetyl-D-glucosamine]",Binding detected by ITC,[1],did not exhibit measurable binding
"O=C[C@H](O)[C@@H](O)[C@H](O[C@@H]1O[C@H](CO)[C@@H](O)[C@H](O)[C@H]1O)[C@H](O)CO [cellobiose, glucose-β1,4-glucose]",Binding detected by ITC,[1],did not bind
GlcNAcβ1-2Manα1-6(GlcNAcβ1-2Manα1-3)Manβ1-4GlcNAcβ1-4GlcNAc [NGA2],association rate ka,VCCβ-prism,"37,000 M^−1s^−1"
same,dissociation rate kd,VCCβ-prism,0.040 s⁻¹
same,Kd,VCCβ-prism; read-out: Affinity (approximate summary),~0.0001 mM
same,Kd,VCCβ-prism; read-out: KD (equilibrium analysis),0.000183 mM
same,Kd,VCCβ-prism; read-out: KD (kinetic fit),0.000108 mM
fetuin,Inhibition of VCC activity,VCC,inhibited
"galactose-α-1,4-galactose [galabiose]",Average fluorescence of VCC binding to glycan,VCCWT,≤ 100 RFUs
"galactose-β-1,4(fucose-α-1,3)N-acetyl glucosamine [Lewis X]",Average fluorescence of VCC binding to glycan,VCCWT,≤ 100 RFUs
lacto-N-biose,Average fluorescence of VCC binding to glycan,VCCWT,≤ 100 RFUs
